Test results published in US7348306B2, “Composition for promoting lacrimal secretion” (Fuso Pharmaceutical Industries, Ltd., priority 1999, dated 2008).
Where no end group is shown, it is not given here.

Test system: rat lacrimal secretion
Test: Rat lacrimal secretion in vivo, Schirmer test paper, after intravenous administration of PAR-associated peptides
Settings: male Wistar rat
Procedure: An amount of lacrimal fluid may be measured according to the known method such as a method of Iga et al. using a rat (Iga, Y. et al., Jpn. J. Pharmacol., 78, 373-80, 1998). In particular, a rat is anesthetized with pentobarbital (50 mg/kg, intraabdominal administration), and a paper with 2 mm width for testing the human lacrimal secretion function, the Schirmer test paper (Showa Yakuhin Kako Co., Ltd.) is inserted into a lower eyelid of the rat. After a period of time fixed has passed, the test paper is removed, and a length of the wetted portion of the test paper is measured using a caliper square.
Male Wistar-line rat at 6 weeks of age was used in experiments. Each animal was housed for one week under the environment of room temperature of 23±2° C., a humidity of 50±5% and a 12 hours light/dark cycle (light: 07:00-19:00) and, thereafter, it was subjected to experiments. During the housing and experiment period, the animal was fed a solid chow and water ad lib.
Four animals were used in Examples 3-4, and the results thereof are shown in the mean±S.E.M. The test of significance was performed according to a Tukey's multiple comparison test.
An amount of rat lacrimal fluid was measured according to the method of Iga et al. (Iga, Y. et al., Jpn. J. Pharmacol., 78, 373-80, 1998). That is, the rat was anesthetized with pentobarbital (50 mg/kg, intraabdominal administration), and a paper with 2 mm width for testing human lacrimal secretion function, the Schirmer test paper (Showa Yakuhin Kako Co., Ltd.) was inserted into a lower eyelid of the rat. After the period of time fixed has passed, the test paper was removed, and a length of a wetted portion of the test paper was measured using a caliper square. An amount of lacrimal fluid was measured at 1, 2, 4, 6, 8 and 10 minutes after intravenous administration of a solvent or PAR-associated peptides.
An amount of lacrimal fluid was measured as described in Example 3.

[1] = 5 μmol/kg intravenously, peptide alone, Example 3 (FIG. 1)

Row | Substance | effect on rat lacrimal secretion (5 μmol/kg intravenously, Example 4 (FIG. 2), vs solvent-administrated group) | effect on lacrimal secretion (length of wetted portion of Schirmer test paper) [1] | time of peak of lacrimal secretion promotion after intravenous administration [1] [min] | dose-dependency of rat lacrimal secretion promoting action (1 to 5 μmol/kg intravenously, Example 4 (FIG. 2), vs solvent) | lacrimal secretion 8 and 10 minutes after combined treatment with amastatine, as compared with SLp-NH2 alone (SLp-NH2 5 μmol/kg i.v. with amastatine 2.5 μmol/kg i.v. 1 minute before, P<0.01 vs SLp-NH2 (Tukey test)) | persistence of lacrimal secretion promoting action in combined treatment with amastatine (SLp-NH2 5 μmol/kg i.v. with amastatine 2.5 μmol/kg i.v. 1 minute before, compared with SLp-NH2 alone)
1 | Leu-Arg-Gly-Ile-Leu-Ser-NH2 (LRGILS-NH2) [LRp-NH2, designed control peptide, C-terminal amidated, reference compound] | no effect |  |  |  |  | 
2 | Ser-Leu-Ile-Gly-Arg-Leu-NH2 (SLIGRL-NH2) [SLp-NH2] |  | significant promotion of lacrimal secretion | 1 | promoted the rat lacrimal secretion in doses of ranging from 1 to 5 μmol/kg in a dose-dependent manner | significant promotion of lacrimal secretion | more persistent than that of SLp-NH2 alone
